In patent EP0308189B1, “Skin cleansing toilet bar with low moisture content” (THE PROCTER & GAMBLE COMPANY, priority 1987, dated 1989):

System: skin epidermis

- Relative Skin Barrier Penetration Value: 40
- Total mg Water Penetrating the Skin in 24 Hours: 60.3 ± 17.7 mg
Substance: Cocoyl Isethionate
